{"source": "patent US20230018765A1", "about": "“A 19-NOR C3,3-DISUBSTITUTED C21-N-PYRAZOLYL STEROID AND METHODS OF USE THEREOF” (Sage Therapeutics, Inc., priority 2019, published 2023)", "key": {"GABAA receptors": {"system": "GABAA receptors", "assay": "modulation of GABAA receptors", "conditions": "synaptic and extrasynaptic GABAA receptors"}, "[1]": {"system": "adult patients diagnosed with MDD (MADRS total score ≥32 and a HAM-D total score ≥22)", "assay": "double-blind, randomized placebo-controlled Phase 3 study of Compound 1 in Major Depressive Disorder (efficacy by HAM-D total score, safety and tolerability)", "type": "in vivo, human", "conditions": "for overall incidence of patients who experienced AEs: 14-day treatment period and 28-day follow up, placebo 48.9%; for AE incidence: Fatigue: placebo 2.6%; for AE incidence: Sedation / subjects having treatment emergent AEs leading to study drug discontinuation: placebo 3.2%; for AE incidence: Dizziness: placebo 3.7%; for AE incidence: Somnolence: placebo 4.2%; for AE incidence: Nausea: placebo 4.7%; for AE incidence: Diarrhea: placebo 5.3%; for AE incidence: Headache: treatment period and 28-day follow up, placebo 7.4%", "experimental": "Compound 1 was evaluated in a double-blind, randomized placebo-controlled Phase 3 study in Major Depressive Disorder (MDD). The evaluated the efficacy, safety and pharmacokinetics of Compound 1 in adult patients diagnosed with MDD (MADRS total score ≥32 and a HAM-D total score ≥22).\nCompound 1 was administered to a patient, either in 20 mg daily doses once a day for 14 days or 30 mg once a day for 14 days."}, "subjects with MDD [2]": {"system": "subjects with MDD", "assay": "HAM-D course after a Compound 1 treatment cycle (response/remission at Day 15, HAM-D at Day 42)", "type": "in vivo, human"}, "subjects with MDD [3]": {"system": "subjects with MDD", "assay": "Phase 2 study in subjects with MDD / previous clinical trials of Compound 1"}, "[4]": {"conditions": "among subjects achieving remission or response at Day 15, Day 42"}}, "data": [{"smiles": "C[C@@]1(O)CC[C@H]2[C@H](CC[C@@H]3[C@@H]2CC[C@]2(C)[C@@H](C(=O)Cn4cc(C#N)cn4)CC[C@@H]32)C1", "note": "[Compound 1]", "values": [{"measurement": "mode of action at GABAA receptors", "setting": "GABAA receptors", "result": "positive allosteric modulator of GABAA receptors"}, {"measurement": "separation from placebo (HAM-D) of the 20 mg dose", "setting": "[1]; 20 mg once a day for 14 days", "result": "did not separate from placebo"}, {"measurement": "tolerability in the trial", "setting": "[1]; 20 mg or 30 mg once a day for 14 days", "result": "generally well tolerated"}, {"measurement": "overall incidence of patients who experienced AEs", "setting": "[1]; 20 mg", "result": 50.0, "unit": "%"}, {"measurement": "patients who reported SAEs during follow-up", "setting": "[1]; 20 mg, SAEs related to cocaine ingestion, Day 39", "result": "one"}, {"measurement": "AE incidence: Fatigue", "setting": "[1]; 20 mg", "result": 1.6, "unit": "%"}, {"measurement": "AE incidence: Sedation", "setting": "[1]; 20 mg", "result": 5.9, "unit": "%"}, {"measurement": "subjects having treatment emergent AEs leading to study drug discontinuation", "setting": "[1]; 20 mg", "result": 1.6, "unit": "%"}, {"measurement": "AE incidence: Dizziness", "setting": "[1]; 20 mg", "result": 7.4, "unit": "%"}, {"measurement": "AE incidence: Somnolence", "setting": "[1]; 20 mg", "result": 5.9, "unit": "%"}, {"measurement": "AE incidence: Nausea", "setting": "[1]; 20 mg", "result": 5.3, "unit": "%"}, {"measurement": "AE incidence: Diarrhea", "setting": "[1]; 20 mg", "result": 5.9, "unit": "%"}, {"measurement": "AE incidence: Headache", "setting": "[1]; 20 mg", "result": 11.2, "unit": "%"}, {"measurement": "onset of effect (HAM-D vs placebo)", "setting": "[1]; 30 mg (n=166)", "result": "beginning at Day 3"}, {"measurement": "LS Mean Difference from placebo, HAM-D total score, Day 3", "setting": "[1]; 30 mg (n=166) vs placebo (n=157), Day 3, p=0.016", "result": "−1.6"}, {"measurement": "AE incidence: Diarrhea", "setting": "[1]; 30 mg (printed 30 rug)", "result": 6.3, "unit": "%"}, {"measurement": "reduction in depressive symptoms in the HAM-D total score at Day 15 (primary endpoint)", "setting": "[1]; 30 mg once a day for 14 days, Day 15, placebo 11.2", "result": 12.6}, {"measurement": "LS Mean Difference, HAM-D total score at Day 15, patients with measurable drug concentrations and HAM-D≥24", "setting": "[1]; 30 mg vs placebo, post-hoc, p=0.017", "result": "−2.6"}, {"measurement": "LS Mean Difference, HAM-D total score at Day 15, patients with HAM-D≥24", "setting": "[1]; 30 mg vs placebo, post-hoc, p=0.032", "result": "−2.3"}, {"measurement": "LS Mean Difference, HAM-D total score at Day 15, patients with measurable drug concentrations", "setting": "[1]; 30 mg vs placebo, post-hoc, p=0.048", "result": "−1.8"}, {"measurement": "overall incidence of patients who experienced AEs", "setting": "[1]; 30 mg", "result": 54.2, "unit": "%"}, {"measurement": "LS Mean Difference from placebo, HAM-D total score, Day 8", "setting": "[1]; 30 mg, Day 8, p=0.008", "result": "−2.1"}, {"measurement": "LS Mean Difference from placebo, HAM-D total score, Day 12", "setting": "[1]; 30 mg, Day 12, p=0.018", "result": "−2.1"}, {"measurement": "LS Mean Difference from placebo, HAM-D total score, Day 15", "setting": "[1]; 30 mg, Day 15, p=0.115", "result": "−1.4"}, {"measurement": "LS Mean Difference from placebo, HAM-D total score, Day 42", "setting": "[1]; 30 mg, Day 42, p=0.807", "result": "−0.5"}, {"measurement": "Change from baseline in HAM-D total score at Day 42", "setting": "[1]; 30 mg, Day 42, placebo −11.7", "result": "−11.9"}, {"measurement": "AE incidence: Fatigue", "setting": "[1]; 30 mg", "result": 6.8, "unit": "%"}, {"measurement": "AE incidence: Sedation", "setting": "[1]; 30 mg", "result": 4.7, "unit": "%"}, {"measurement": "subjects having treatment emergent AEs leading to study drug discontinuation", "setting": "[1]; 30 mg", "result": 2.1, "unit": "%"}, {"measurement": "AE incidence: Dizziness", "setting": "[1]; 30 mg", "result": 5.7, "unit": "%"}, {"measurement": "AE incidence: Somnolence", "setting": "[1]; 30 mg", "result": 6.8, "unit": "%"}, {"measurement": "AE incidence: Nausea", "setting": "[1]; 30 mg", "result": 3.6, "unit": "%"}, {"measurement": "Change from baseline in HAM-D total score at Day 15, patients with HAM-D≥24", "setting": "[1]; 30 mg, post-hoc, n=124, placebo −11.4", "result": "−13.7"}, {"measurement": "Change from baseline in HAM-D total score at Day 15, patients with measurable drug concentrations", "setting": "[1]; 30 mg, post-hoc, n=151, placebo −11.2", "result": "−13.0"}, {"measurement": "Change from baseline in HAM-D total score at Day 15, patients with measurable drug concentrations and HAM-D≥24", "setting": "[1]; 30 mg, post-hoc, placebo −11.4", "result": "−14.0"}, {"measurement": "patients who experienced serious adverse events (SAEs) during treatment", "setting": "[1]; 30 mg, suicide attempt Day 5, bile duct stone after Day 2", "result": "Two"}, {"measurement": "patients who reported SAEs during follow-up", "setting": "[1]; 30 mg, syncope and associated injuries, Day 28", "result": "one"}, {"measurement": "AE incidence: Headache", "setting": "[1]; 30 mg", "result": 6.3, "unit": "%"}, {"measurement": "durability of improvements in depressive symptoms, double-blind portion", "setting": "[1]; all treatment groups, through Day 42", "result": "sustained in all treatment groups through Day 42"}, {"measurement": "AEs of loss of consciousness", "setting": "[1]; any group", "result": "no ABs of loss of consciousness"}, {"measurement": "suicidal ideation or suicidal behavior by Columbia Suicide Severity Rating Scale (C-SSRS)", "setting": "[1]; compared to baseline", "result": "no signal fir increased suicidal ideation or suicidal behavior"}, {"measurement": "durability of improvement in depressive symptoms, long-term follow-up", "setting": "[1]; patients who completed long-term follow-up up to 6 months, preliminary data", "result": "maintenance of improvement in depressive symptoms"}, {"measurement": "subjects achieving remission or response at Day 15", "setting": "subjects with MDD [2]; Day 15", "result": 78.6, "unit": "%"}, {"measurement": "subjects with HAM-D≥22 at Day 42", "setting": "subjects with MDD [2]; [4]", "result": 6.1, "unit": "%"}, {"measurement": "subjects with a HAM-D score of 16 to 21 at Day 42", "setting": "subjects with MDD [2]; [4]", "result": 18.2, "unit": "%"}, {"measurement": "efficacy in a Phase 2 study in subjects with MDD", "setting": "subjects with MDD [3]; 30 mg per day", "result": "efficacious"}, {"measurement": "tolerability in a Phase 2 study in subjects with MDD", "setting": "subjects with MDD [3]; 30 mg per day", "result": "well-tolerated"}, {"measurement": "adverse effect in previous clinical trials, morning administration", "setting": "subjects with MDD [3]; administered in the morning", "result": "sedation/somnolence observed"}, {"measurement": "tolerability in previous clinical trials, evening administration", "setting": "subjects with MDD [3]; given in the evening", "result": "improved tolerability"}]}]}
